{"source": "the supplement of paper PMC6965134", "assay": "TIMS collisional cross section (CCS, N2) of the lipid ion; higher = larger ion cross section", "settings": "ionization mode: negative, one isomer drawn", "method": "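Lipid extracts of human plasma (NIST SRM 1950), mouse liver or HeLa cells were separated by nanoflow C18 LC (30 min gradient) and analysed by TIMS-PASEF on a timsTOF Pro. Ion mobility was calibrated with the Agilent tuning mix (negative mode ions) and converted to collisional cross sections (Mason–Schamp, N2).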", "key": {"[1]": {"settings": "sample type: Mouse Liver, ion (formula + adduct): [C44H74NO10P-H] 1-"}}}
{"smiles": "CCCCC/C=C\\C/C=C\\C/C=C\\C/C=C\\CCCC(=O)OC[C@H](COP(=O)(O)OC[C@H](N)C(=O)O)OC(=O)CCCCCCC/C=C\\C/C=C\\CCCCC", "note": "[PS 20:4_18:2@]", "values": [{"measurement": "TIMS collisional cross section", "setting": "[1]", "result": 286.4, "unit": "Å²"}]}
{"smiles": "CCCCC/C=C\\C/C=C\\C/C=C\\C/C=C\\CCCC(=O)OC[C@H](COP(=O)(O)OC[C@H](N)C(=O)O)OC(=O)CCC/C=C\\C/C=C\\C/C=C\\C/C=C\\CCCCC", "note": "[PS 20:4_20:4]", "values": [{"measurement": "TIMS collisional cross section", "setting": "sample type: Mouse Liver, ion (formula + adduct): [C46H74NO10P-H] 1-", "result": 287.4, "unit": "Å²"}]}
{"smiles": "CC/C=C\\C/C=C\\C/C=C\\C/C=C\\C/C=C\\CCCC(=O)OC[C@H](COP(=O)(O)OC[C@H](N)C(=O)O)OC(=O)CCCCCCCCCCCCCCC", "note": "[PS 20:5_16:0]", "values": [{"measurement": "TIMS collisional cross section", "setting": "sample type: Mouse Liver, ion (formula + adduct): [C42H72NO10P-H] 1-", "result": 279, "unit": "Å²"}]}
{"smiles": "CC/C=C\\C/C=C\\C/C=C\\C/C=C\\C/C=C\\CCCC(=O)OC[C@H](COP(=O)(O)OC[C@H](N)C(=O)O)OC(=O)CCCCCCCCCCCCCCCCC", "note": "[PS 20:5_18:0]", "values": [{"measurement": "TIMS collisional cross section", "setting": "sample type: Mouse Liver, ion (formula + adduct): [C44H76NO10P-H] 1-", "result": 284.6, "unit": "Å²"}]}
{"smiles": "CCCCC/C=C\\C/C=C\\C/C=C\\C/C=C\\CCCCCC(=O)OC[C@H](COP(=O)(O)OC[C@H](N)C(=O)O)OC(=O)CCCCCCCCCCCCCCC", "note": "[PS 22:4@_16:0]", "values": [{"measurement": "TIMS collisional cross section", "setting": "sample type: Mouse Liver, ion (formula + adduct): [C44H78NO10P-H] 1-", "result": 288.7, "unit": "Å²"}]}
{"smiles": "CCCCC/C=C\\C/C=C\\C/C=C\\C/C=C\\CCCCCC(=O)OC[C@H](COP(=O)(O)OC[C@H](N)C(=O)O)OC(=O)CCCCCCCCCCCCCCCCC", "note": "[PS 22:4_18:0]", "values": [{"measurement": "TIMS collisional cross section", "setting": "sample type: Mouse Liver, ion (formula + adduct): [C46H82NO10P-H] 1-", "result": 291.4, "unit": "Å²"}]}
{"smiles": "CC/C=C\\C/C=C\\C/C=C\\C/C=C\\C/C=C\\C/C=C\\CCC(=O)OC[C@H](COP(=O)(O)OC[C@H](N)C(=O)O)OC(=O)CCCCCCCCCCCCCCC", "note": "[PS 22:6_16:0]", "values": [{"measurement": "TIMS collisional cross section", "setting": "[1]", "result": 283.5, "unit": "Å²"}]}
{"smiles": "CC/C=C\\C/C=C\\C/C=C\\C/C=C\\C/C=C\\C/C=C\\CCC(=O)OC[C@H](COP(=O)(O)OC[C@H](N)C(=O)O)OC(=O)CCCCCCCCCCCCCCCCC", "note": "[PS 22:6_18:0]", "values": [{"measurement": "TIMS collisional cross section", "setting": "sample type: Mouse Liver, ion (formula + adduct): [C46H78NO10P-H] 1-", "result": 289.7, "unit": "Å²"}]}
{"smiles": "CCCCCCCC/C=C\\CCCCCCCC(=O)N[C@@H](COP(=O)([O-])OCC[N+](C)(C)C)[C@H](O)/C=C/CCCCCCCCCCC", "note": "[SM d16:1_18:1@]", "values": [{"measurement": "TIMS collisional cross section", "setting": "sample type: Human plasma, ion (formula + adduct): [C39H77N2O6P+HCOO] 1-", "result": 285, "unit": "Å²"}]}
{"smiles": "CCCCCCCCCCCCC/C=C/[C@@H](O)[C@H](COP(=O)([O-])OCC[N+](C)(C)C)NC(=O)CCCCCCCCCCCCC", "note": "[SM d18:1_14:0@]", "values": [{"measurement": "TIMS collisional cross section", "setting": "sample type: Human plasma, ion (formula + adduct): [C37H75N2O6P+HCOO] 1-", "result": 280.6, "unit": "Å²"}]}
